# Results as given in the kinase profiling compilation of Christmann-Franck et al. (2016).
# Experiments:
# Experiment in all cases: KINOMEscan competition binding
# Conditions in all cases: compound 0.1 µM
# CDK7 (human) = CDK7 (human) (UniProt P50613)
# EPHB2 (human) = EPHB2 (human) (UniProt P29323)
# PRKG2 (human) = PRKG2 (human) (UniProt Q13237)
# [1] = test system: RET (human), P07949 [V804M]
# PIP5K1A (human) = PIP5K1A (human) (UniProt Q99755)
# PLK2 (human) = PLK2 (human) (UniProt Q9NYY3)
# Sequence of PLK2 (human) (Q9NYY3 whole entry, looked up): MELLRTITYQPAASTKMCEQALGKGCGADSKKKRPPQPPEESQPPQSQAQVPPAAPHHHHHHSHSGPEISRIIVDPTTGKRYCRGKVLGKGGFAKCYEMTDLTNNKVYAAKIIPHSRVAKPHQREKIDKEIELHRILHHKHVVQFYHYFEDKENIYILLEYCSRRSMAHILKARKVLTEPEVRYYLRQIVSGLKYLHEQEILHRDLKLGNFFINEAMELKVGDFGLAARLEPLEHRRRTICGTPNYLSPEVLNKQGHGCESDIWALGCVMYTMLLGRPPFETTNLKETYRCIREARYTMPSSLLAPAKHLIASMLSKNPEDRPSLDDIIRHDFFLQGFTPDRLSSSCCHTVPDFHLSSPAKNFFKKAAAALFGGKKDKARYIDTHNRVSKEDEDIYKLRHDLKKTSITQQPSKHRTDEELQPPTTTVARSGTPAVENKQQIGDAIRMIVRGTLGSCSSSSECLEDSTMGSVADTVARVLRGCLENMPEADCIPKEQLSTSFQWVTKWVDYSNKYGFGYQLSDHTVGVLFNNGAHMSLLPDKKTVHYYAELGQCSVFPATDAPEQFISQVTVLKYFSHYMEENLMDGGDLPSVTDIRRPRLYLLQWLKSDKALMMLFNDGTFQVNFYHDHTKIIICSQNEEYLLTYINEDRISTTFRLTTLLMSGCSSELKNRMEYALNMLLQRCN
# [2] = test system: EGFR (human), P00533 [G719C]
# [3] = biological target: JAK1 JH2 pseudokinase (human) (UniProt P23458)
# RIPK1 (human) = RIPK1 (human) (UniProt Q13546)
# Sequence of RIPK1 (human) (Q13546 whole entry, looked up): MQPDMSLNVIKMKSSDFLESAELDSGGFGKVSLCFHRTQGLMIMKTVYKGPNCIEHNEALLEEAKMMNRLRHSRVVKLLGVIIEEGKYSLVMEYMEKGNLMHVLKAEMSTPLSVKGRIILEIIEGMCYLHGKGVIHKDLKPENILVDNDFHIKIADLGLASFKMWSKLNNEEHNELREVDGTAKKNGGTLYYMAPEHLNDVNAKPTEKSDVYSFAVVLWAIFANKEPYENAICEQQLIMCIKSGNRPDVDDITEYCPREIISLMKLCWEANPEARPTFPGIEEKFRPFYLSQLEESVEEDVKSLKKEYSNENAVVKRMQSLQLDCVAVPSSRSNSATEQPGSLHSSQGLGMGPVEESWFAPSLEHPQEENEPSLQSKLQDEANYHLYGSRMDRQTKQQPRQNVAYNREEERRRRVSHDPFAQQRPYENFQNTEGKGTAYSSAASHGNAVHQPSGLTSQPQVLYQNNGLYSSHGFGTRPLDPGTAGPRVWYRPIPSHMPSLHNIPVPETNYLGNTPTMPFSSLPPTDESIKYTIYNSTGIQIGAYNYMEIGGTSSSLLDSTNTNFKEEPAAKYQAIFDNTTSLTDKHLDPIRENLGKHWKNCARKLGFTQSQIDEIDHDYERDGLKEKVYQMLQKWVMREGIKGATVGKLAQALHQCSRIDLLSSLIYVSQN
# ALK (human) = ALK (human) (UniProt Q9UM73)
# Sequence of ALK (human) (Q9UM73 whole entry, looked up): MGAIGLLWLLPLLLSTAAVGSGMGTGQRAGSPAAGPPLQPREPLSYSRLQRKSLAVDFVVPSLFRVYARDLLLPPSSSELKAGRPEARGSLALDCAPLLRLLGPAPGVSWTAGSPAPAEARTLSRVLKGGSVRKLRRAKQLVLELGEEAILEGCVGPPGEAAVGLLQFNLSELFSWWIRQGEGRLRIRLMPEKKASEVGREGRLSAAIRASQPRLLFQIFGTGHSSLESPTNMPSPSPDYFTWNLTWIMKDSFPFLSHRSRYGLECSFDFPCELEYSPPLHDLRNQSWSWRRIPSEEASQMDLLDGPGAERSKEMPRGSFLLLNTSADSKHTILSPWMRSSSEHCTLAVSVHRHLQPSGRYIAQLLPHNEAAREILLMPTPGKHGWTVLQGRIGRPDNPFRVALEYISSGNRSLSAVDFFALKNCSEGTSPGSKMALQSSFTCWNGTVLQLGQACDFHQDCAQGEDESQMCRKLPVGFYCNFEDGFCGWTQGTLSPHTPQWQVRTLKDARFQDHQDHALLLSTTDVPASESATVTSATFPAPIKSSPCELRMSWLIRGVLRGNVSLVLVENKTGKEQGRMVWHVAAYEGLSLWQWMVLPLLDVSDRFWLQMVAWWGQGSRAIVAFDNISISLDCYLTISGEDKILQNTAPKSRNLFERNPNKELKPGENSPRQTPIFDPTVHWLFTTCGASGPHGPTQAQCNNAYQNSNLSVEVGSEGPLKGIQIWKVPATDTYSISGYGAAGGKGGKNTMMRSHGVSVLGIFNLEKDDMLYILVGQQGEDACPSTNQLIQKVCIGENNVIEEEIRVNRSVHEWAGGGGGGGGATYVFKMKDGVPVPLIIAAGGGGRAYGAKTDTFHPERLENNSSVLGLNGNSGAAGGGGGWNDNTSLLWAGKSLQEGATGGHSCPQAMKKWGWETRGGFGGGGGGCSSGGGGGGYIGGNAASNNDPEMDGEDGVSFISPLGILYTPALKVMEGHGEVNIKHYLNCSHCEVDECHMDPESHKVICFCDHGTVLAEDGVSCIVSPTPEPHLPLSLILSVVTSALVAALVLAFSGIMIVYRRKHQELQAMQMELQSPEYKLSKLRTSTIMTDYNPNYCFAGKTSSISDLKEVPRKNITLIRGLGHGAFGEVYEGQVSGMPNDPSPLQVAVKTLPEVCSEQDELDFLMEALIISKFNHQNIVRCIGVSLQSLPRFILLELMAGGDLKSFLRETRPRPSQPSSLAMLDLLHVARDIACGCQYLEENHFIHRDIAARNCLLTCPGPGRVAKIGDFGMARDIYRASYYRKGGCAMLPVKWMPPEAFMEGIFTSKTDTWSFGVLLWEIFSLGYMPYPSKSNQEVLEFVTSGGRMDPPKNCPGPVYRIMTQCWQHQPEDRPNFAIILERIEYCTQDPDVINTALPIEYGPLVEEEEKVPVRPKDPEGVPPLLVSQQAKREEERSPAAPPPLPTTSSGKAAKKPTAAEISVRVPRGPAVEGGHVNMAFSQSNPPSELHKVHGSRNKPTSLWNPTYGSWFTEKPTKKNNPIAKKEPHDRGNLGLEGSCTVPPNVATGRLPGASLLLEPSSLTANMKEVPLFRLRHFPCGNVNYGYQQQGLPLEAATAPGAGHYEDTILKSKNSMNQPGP
# WNK3 (human) = WNK3 (human) (UniProt Q9BYP7)
# CRK2 (P.falciparum) = CRK2 (P.falciparum) (UniProt P61075)
# Sequence of CRK2 (P.falciparum) (P61075 whole entry, looked up): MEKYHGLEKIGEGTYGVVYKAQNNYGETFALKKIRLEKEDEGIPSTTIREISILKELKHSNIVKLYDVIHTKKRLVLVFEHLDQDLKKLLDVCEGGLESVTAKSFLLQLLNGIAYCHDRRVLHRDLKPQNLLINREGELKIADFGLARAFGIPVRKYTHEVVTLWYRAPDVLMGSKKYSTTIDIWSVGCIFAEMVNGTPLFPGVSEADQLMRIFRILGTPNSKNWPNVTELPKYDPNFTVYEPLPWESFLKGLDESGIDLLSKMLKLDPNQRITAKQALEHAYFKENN
# MST1R (human) = MST1R (human) (UniProt Q04912)
# SGK3 (human) = SGK3 (human) (UniProt Q96BR1)
# SGK110 (human) = SGK110 (human) (UniProt P0C264)
# GRK4 (human) = GRK4 (human) (UniProt P32298)
# STK17B (human) = STK17B (human) (UniProt O94768)
# Sequence of STK17B (human) (O94768 whole entry, looked up): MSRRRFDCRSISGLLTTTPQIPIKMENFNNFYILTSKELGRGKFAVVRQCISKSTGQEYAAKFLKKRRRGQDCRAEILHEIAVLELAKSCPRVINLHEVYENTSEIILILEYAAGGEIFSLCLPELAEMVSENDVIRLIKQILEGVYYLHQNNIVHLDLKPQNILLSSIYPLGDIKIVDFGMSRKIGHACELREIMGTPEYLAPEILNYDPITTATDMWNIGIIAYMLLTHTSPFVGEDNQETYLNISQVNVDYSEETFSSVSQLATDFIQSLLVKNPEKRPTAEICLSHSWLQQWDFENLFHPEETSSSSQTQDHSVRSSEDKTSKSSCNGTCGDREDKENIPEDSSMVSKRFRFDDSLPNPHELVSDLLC
# ACVR2A (human) = ACVR2A (human) (UniProt P27037)
# Sequence of ACVR2A (human) (P27037 whole entry, looked up): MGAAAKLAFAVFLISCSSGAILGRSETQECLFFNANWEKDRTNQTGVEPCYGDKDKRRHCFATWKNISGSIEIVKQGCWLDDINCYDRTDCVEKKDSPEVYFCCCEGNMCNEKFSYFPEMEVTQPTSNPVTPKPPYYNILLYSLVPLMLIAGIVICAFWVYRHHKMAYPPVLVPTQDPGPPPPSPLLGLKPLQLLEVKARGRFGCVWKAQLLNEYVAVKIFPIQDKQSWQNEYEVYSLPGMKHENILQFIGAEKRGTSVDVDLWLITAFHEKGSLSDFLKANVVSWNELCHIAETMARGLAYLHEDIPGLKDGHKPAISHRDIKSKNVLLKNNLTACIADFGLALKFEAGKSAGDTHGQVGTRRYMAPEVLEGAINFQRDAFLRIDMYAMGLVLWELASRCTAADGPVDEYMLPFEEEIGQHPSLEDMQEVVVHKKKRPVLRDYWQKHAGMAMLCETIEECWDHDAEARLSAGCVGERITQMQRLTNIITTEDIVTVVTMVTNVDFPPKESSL
# CaMK1 (human) = CaMK1 (human) (UniProt Q14012)
# Sequence of CaMK1 (human) (Q14012 whole entry, looked up): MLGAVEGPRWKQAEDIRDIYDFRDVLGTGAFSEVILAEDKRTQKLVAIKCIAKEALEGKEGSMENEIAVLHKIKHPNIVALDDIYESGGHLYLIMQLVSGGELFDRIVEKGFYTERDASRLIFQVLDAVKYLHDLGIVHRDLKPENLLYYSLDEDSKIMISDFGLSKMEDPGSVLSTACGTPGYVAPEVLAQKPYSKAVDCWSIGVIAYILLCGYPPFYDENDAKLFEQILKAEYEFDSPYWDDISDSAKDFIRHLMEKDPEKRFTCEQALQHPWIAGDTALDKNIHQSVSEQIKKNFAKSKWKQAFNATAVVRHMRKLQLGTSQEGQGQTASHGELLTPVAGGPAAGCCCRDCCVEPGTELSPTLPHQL
# STK24 (human) = STK24 (human) (UniProt Q9Y6E0)
# Sequence of STK24 (human) (Q9Y6E0 whole entry, looked up): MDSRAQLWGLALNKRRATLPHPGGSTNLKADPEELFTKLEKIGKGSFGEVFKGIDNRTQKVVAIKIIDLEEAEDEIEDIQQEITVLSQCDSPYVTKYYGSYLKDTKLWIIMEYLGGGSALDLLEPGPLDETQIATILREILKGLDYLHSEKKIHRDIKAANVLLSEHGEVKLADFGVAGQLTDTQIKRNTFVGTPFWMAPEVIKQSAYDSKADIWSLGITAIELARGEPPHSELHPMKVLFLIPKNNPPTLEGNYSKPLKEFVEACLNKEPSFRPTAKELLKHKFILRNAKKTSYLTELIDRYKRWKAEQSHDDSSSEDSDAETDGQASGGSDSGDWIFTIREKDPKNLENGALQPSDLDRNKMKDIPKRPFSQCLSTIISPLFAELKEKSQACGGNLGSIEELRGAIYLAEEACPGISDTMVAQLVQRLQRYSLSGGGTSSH
# FGFR2 (human) = FGFR2 (human) (UniProt P21802)
# PKN2 (human) = PKN2 (human) (UniProt Q16513)
# STK35 (human) = STK35 (human) (UniProt Q8TDR2)
# TAOK2 (human) = TAOK2 (human) (UniProt Q9UL54)
# [4] = test system: EGFR (human), P00533 [G719S]
# ACVR1B (human) = ACVR1B (human) (UniProt P36896)
# LRRK2 (human) = LRRK2 (human) (UniProt Q5S007)
# MAP4K4 (human) = MAP4K4 (human) (UniProt O95819)
# [5] = test system: PIK3CA (human), P42336 [M1043I]
# STK16 (human) = STK16 (human) (UniProt O75716)
# [6] = test system: KIT (human), P10721 [V559D]
# RPS6KA4 KD1 (human) = RPS6KA4 KD1 (human) (UniProt O75676)
# PAK1 (human) = PAK1 (human) (UniProt Q13153)
# CASK (human) = CASK (human) (UniProt O14936)
smiles,measurement,setting,value
CCc1ccc(C(=O)Nc2cc(CN3CCN(C)CC3)cc(C(F)(F)F)c2)cc1C#Cc1cnc2ccnn2c1,"kinase still bound, per cent of control",CDK7 (human),100%
same,"kinase still bound, per cent of control",EPHB2 (human),100%
same,"kinase still bound, per cent of control",PRKG2 (human),100%
same,"kinase still bound, per cent of control",[1],80%
same,"kinase still bound, per cent of control",PIP5K1A (human),100%
same,"kinase still bound, per cent of control",PLK2 (human),100%
same,"kinase still bound, per cent of control",[2],100%
same,"kinase still bound, per cent of control",[3],100%
same,"kinase still bound, per cent of control",RIPK1 (human),100%
same,"kinase still bound, per cent of control",ALK (human),100%
same,"kinase still bound, per cent of control",WNK3 (human),100%
same,"kinase still bound, per cent of control",CRK2 (P.falciparum),100%
same,"kinase still bound, per cent of control",MST1R (human),66%
same,"kinase still bound, per cent of control",SGK3 (human),100%
same,"kinase still bound, per cent of control",SGK110 (human),100%
same,"kinase still bound, per cent of control",GRK4 (human),97%
same,"kinase still bound, per cent of control",STK17B (human),75%
same,"kinase still bound, per cent of control",ACVR2A (human),97%
same,"kinase still bound, per cent of control",CaMK1 (human),75%
same,"kinase still bound, per cent of control",STK24 (human),100%
same,"kinase still bound, per cent of control",FGFR2 (human),100%
same,"kinase still bound, per cent of control",PKN2 (human),74%
same,"kinase still bound, per cent of control",STK35 (human),100%
same,"kinase still bound, per cent of control",TAOK2 (human),100%
same,"kinase still bound, per cent of control",[4],100%
same,"kinase still bound, per cent of control",ACVR1B (human),100%
same,"kinase still bound, per cent of control",LRRK2 (human),86%
same,"kinase still bound, per cent of control",MAP4K4 (human),100%
same,"kinase still bound, per cent of control",[5],100%
same,"kinase still bound, per cent of control",STK16 (human),71%
same,"kinase still bound, per cent of control",[6],24%
same,"kinase still bound, per cent of control",RPS6KA4 KD1 (human),93%
same,"kinase still bound, per cent of control",PAK1 (human),75%
same,"kinase still bound, per cent of control",CASK (human),100%
